Patent US11820759B2, “Modulators of chemokine receptors” (CHEMOCENTRYX, INC., priority 2015, dated 2023)

Test system: IL-23 induced ear swelling
Assay: IL-23 induced ear swelling model for psoriasis
Format: in vivo
Details: C57B1/6 mice; sub-cutaneous, therapeutic dosing after 3 intradermal injections of IL-23; calipers; FIG. 2
Procedure: An intradermal injection of IL-23 into the ear of mice can cause a swelling of the ear which is CCR6 dependent (Hedrick M. N et. al. J. Clinical Investigation. 2009. 119:2317-2329). C57B1/6 mice were given intradermal injections of IL-23 in the right ear. PBS was given by intradermal injection into the left ear as a control. Compound 1.023 (synthesized in example 6) was dosed by sub-cutaneous route. The compound was dosed in a therapeutic manner, after 3 intradermal injections of IL-23 and upon initiation of moderate ear swelling. The degree of swelling was measured using calipers.

## COc1ccc(C(=O)O)c(N2Cc3c(Cl)ccc(Nc4c(N[C@@H](c5cc(C)c(C)o5)C(C)(C)C)c(=O)c4=O)c3C2=O)c1 [Compound 1.023, 2-[4-chloro-7-[[2-[[(1R)-1-(4,5-dimethyl-2-furyl)-2,2-dimethyl-propyl]amino]-3,4-dioxo-cyclobuten-1-yl]amino]-1-oxo-isoindolin-2-yl]-4-methoxy-benzoic acid]
  IL-23 induced ear swelling: completely inhibit IL-23 induced ear swelling
